Where only a bound is given, the exact number is not on record here.

T1 sequence (O00398 whole entry, the tested form may be a part): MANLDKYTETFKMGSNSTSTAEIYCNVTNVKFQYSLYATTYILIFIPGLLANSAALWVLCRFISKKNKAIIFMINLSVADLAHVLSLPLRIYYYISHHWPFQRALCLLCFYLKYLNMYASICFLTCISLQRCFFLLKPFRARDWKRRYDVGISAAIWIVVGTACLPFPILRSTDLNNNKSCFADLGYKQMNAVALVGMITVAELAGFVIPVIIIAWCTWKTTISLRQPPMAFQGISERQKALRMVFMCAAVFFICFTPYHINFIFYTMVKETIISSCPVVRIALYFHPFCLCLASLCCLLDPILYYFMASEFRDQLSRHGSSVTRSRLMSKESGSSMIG

The target of the first assay is LPA2 receptor (Homo sapiens, UniProt Q9HBW0). Description: LPA2R-calciumflux assay. Format: cell-based. As to conditions: U2OS cells recombinant expressing LPA2R; LPA-induced intracellular calcium signal (FLIPR Tetra); 10 concentrations from 30 uM to 1 nM, 1% DMSO. From the text: Description of the LPA2R Assay
Sequence of LPA2 receptor (Q9HBW0 whole entry): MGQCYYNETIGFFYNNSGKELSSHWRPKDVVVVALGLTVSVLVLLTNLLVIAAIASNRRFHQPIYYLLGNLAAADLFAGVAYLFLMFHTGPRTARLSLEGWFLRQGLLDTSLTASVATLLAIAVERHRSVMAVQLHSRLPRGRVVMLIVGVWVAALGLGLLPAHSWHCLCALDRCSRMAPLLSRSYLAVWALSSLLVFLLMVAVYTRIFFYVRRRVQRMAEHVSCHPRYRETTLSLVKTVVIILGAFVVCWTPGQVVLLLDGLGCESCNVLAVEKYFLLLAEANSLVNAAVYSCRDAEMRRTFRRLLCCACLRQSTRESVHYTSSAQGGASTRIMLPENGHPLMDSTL
Cell Cultivation/Propagation
LPA2R-calciumflux Assay Protocol
The assay detects intra cellular calcium which is generated by cells upon activation of the LPA2 receptor by its ligand LPA. This transient calcium mobilisation can be monitored using a commercial calcium detection kit (e.g. from Molecular Devices). The main component of such a kit is a dye, which becomes fluorescent when calcium is present—a transient fluorescence signal after laddition of a ligand to a test well are the result. Readers like the FLIPR (from Molecular Devices) can be used to monitor such transient “Ca-flux” signals.
The signals are calculated according to peak maximum minus base line. Compounds which are antogonists of LPA lead to a decreased mobilisation of intracellular calcium and thus to a lower signal. The assay is performed in microplates (384 wells per plate).
The assay itself is run according to the following procedure: • 50 uL seed cells (10000 cells/well in DMEM buffer) • Incubate 24 h at 37° C., 10% CO2 • aspirate medium • 50 uL add calcium dye 1×HBSS/HEPES buffer • incubate 1 h at 37° C. (“loading”) • equilibrate 10 min at RT • 5 uL add compounds in HEPES buffer • shake 10 sec. @ 1000 rpm • incubate 15 min at RT • 20 uL add LPA (in the FLIPR Tetra) in KREBS-Puffer/BSA & measurement
The cells are seeded in DMEM buffer (DMEM, 10% FCS, 10 mM HEPES, 1% Pen/Strep).
Dye loading is done in HBSS/HEPES buffer (100 mL 10×HBSS+20 mL 1M HEPES+880 mL water, pH 7.4)
The LPA is added in Krebs/BSA buffer (120 mM NaCl, 5 mM KCl, 0.62 mM MgSO4, 1.8 mM CaCl2, 10 mM HEPES, 6 mM D(+)-Glucose, 0.2% BSA, pH 7.4).
The compounds are pre-diluted in HEPES buffer (20 mM, pH 7.4), whereby the final DMSO content in the assay is kept at 1%. The compounds are pre-diluted in order to generate dose response series on the microplates. The dose response series consist of 10 concentrations for each compound from 30 uM final to 1 nM final. From all compound wells the resulting signals are referred to control wells (located on each plate besides the compound wells) in terms of % activity.
[formula] From these % activity values—along with the corresponding compound concentrations—IC50 values are fitted for each compound using standard fitting programs such as Graphpad Prism. Here the method “log(inhibitor) vs. response—Variable slope” is used. Reader Settings (FLIPR Tetra) • ExcWLength:470—495 • Em.Wlength: 515—575 • Gain: 50 • Exp. Time: 0,4 • Exc.Intensity: 80 • READ with TF • First read interval: 1,00 s • Number of first reads: 240 • Reads before dispense: 10 • Second read interval: 1,00 s • Number of second reads: 0 • Save Images No
With `COc1cccc(-c2n[nH]c3c2C(O)(C(F)(F)F)CC(=O)N3)c1` (stereo not drawn) [Compound 32, 4-Hydroxy-3-(3-methoxy-phenyl)-4-trifluoromethyl-1,4,5,7-tetrahydro-pyrazolo[3,4-b]pyridin-6-one], the IC50 (as a rule, the concentration at which inhibition is half-maximal) was 1 to 10 µM.
On the same count and under the same terms, for `Cc1c(-c2n[nH]c3c2C(O)(C(F)(F)F)CC(=O)N3)cnn1C` (stereo not drawn) [Compound 33, 3-(1,5-Dimethyl-1H-pyrazol-4-yl)-4-hydroxy-4-trifluoromethyl-1,4,5,7-tetrahydro-pyrazolo[3,4-b]pyridin-6-one] the value was 1 to 10 µM; for `CCN1C(=O)CC(O)(C(F)(F)F)c2c(-c3ccccc3)n[nH]c21` (stereo not drawn) [Compound 34, 7-Ethyl-4-hydroxy-3-phenyl-4-trifluoromethyl-1,4,5,7-tetrahydro-pyrazolo[3,4-b]pyridin-6-one], above 10 µM; for `O=C1CC(O)(c2cc(C(F)(F)F)cc(C(F)(F)F)c2)c2c(-c3ccccc3)n[nH]c2N1` (stereo not drawn) [Compound 35, 4-(3,5-Bis-trifluoromethyl-phenyl)-4-hydroxy-3-phenyl-1,4,5,7-tetrahydro-pyrazolo[3,4-b]pyridin-6-one], above 10 µM.

A further assay addresses T1, P2Y10-Gα16 (Homo sapiens, UniProt O00398).
T1 construct: "P2Y10-Gα16"; fused on or other part: The promiscuous G-protein alpha subunit G alpha 16 (GNA15) is fused to the receptor; By the printed name order it probably sits at the C-terminus; It is a coupling handle and not part of the key
Test: not given
The following applies: induction of Ca2+ transients via P2Y10-Gα16; cited from earlier work.
Regarding `CCCCCCCCCCCCC/C=C/[C@@H](O)[C@@H](N)COP(=O)(O)O` [Compound S1P, sphingosine 1-phosphate], the EC50 – broadly, the concentration giving half of the maximal effect – was 0.053 µM.
In the case of Lysophosphatidic acid [LPA], the EC50 is 0.13 µM.

The values above are taken from US9067938B2, “Pyrazolopyridinone derivatives as LPA receptor antagonists” (Merck Patent GmbH, priority 2010, dated 2015).
